Assay results from patent US20230391779A1, “BICYCLIC COMPOUNDS, COMPOSITIONS AND USE THEREOF” (Betta Pharmaceuticals Co., Ltd., priority 2020, published 2023).

Key:
[1] = tested on: TEAD-YAP/TAZ interaction; assay: CTGF ELISA assay; format: cell-based, human; conditions: CTGF in culture supernatant of NCI-H2052 cells, 24 hours with compound
Outline: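 NCI-H2052 cells treated 24 h at 37 °C with compound (10000–0.61 nM, 0.5% DMSO); secreted CTGF in supernatant measured by sandwich ELISA (OD 450 nm) against a standard curve. EC50 fitted from CTGF concentration-response curves.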

[2] = tested on: NCI-H226 cells; assay: BRDU assay (cell proliferation); format: cell-based; conditions: Homo sapiens, proliferation inhibition, 1% FBS medium
Method: PerkinElmer's DELFIA® Cell proliferation kit (PerkinElmer, Cat: AD0200) was used to detect the inhibition on the proliferation of NCI-H226 cells (ATCC, CRL-5826). • a) Seeded 1500/well for NCI-H226 cell into a 96-well plate. • b) After 24 hours, compound was added to wells with 1% FBS medium conditions. The final testing concentrations of test compounds were […]. • c) NCI-H226 cells were incubated for 72 hours in incubator. • d) Diluted BrdU Labeling Reagent 100-fold with medium and added […] per well. The NCI-H226 cells were incubated 24 h in 5% CO2 at 37° C. incubator. • e) Detect cell proliferation according BrdU kit, and the luminescence signal value of each well on the multifunctional microplate reader was readed.
Data analysis: • Use GraphPad Prism 6 software to calculate IC50 and plot effect-dose curve of compounds.
Y=Bottom+(Top−Bottom)/(1+10^((LogIC50−X)×HillSlope)). • Y was the inhibition %, • X was the log concentration of compounds.
Inhibition %=(signalHC−signalcomp)/(signalHC−signalLC); • HC (high control) was DMSO group, • LC (low control) was 10 uM staurosporine group, • Comp was administration group.
IC50 data obtained for the Example compounds are provided in Table 7, and the inhibition curve in NCI-H226 cell line are as shown in FIG. 1-7, wherein X axis is compound concentration (nm), Y axis is the inhibition %.

[3] = tested on: NCI-H226 human lung squamous cell carcinoma xenograft; assay: In vivo efficacy, subcutaneous NCI-H226 xenograft model; parameters: species or system BALB/c nude mice; conditions: QD, oral, tumor volume at day 28
Method: In vivo pharmacodynamic and efficacy studies of compound 5, compound 6, and compound 124 in the subcutaneous NCI-H226 human lung squamous cell carcinoma xenograft model on BALB/c nude mice.
(§1) Each mouse (D000521 BALB/c-Nu, GemPharmatech Co., Ltd.) was inoculated subcutaneously at the right flank with NCI-H226 tumor cells (ATCC, CRL-5826) (1×107) in 0.2 mL of PBS with Matrigel (Corning, 356234) (1:1) for tumor development. Treatments were started when the average tumor size reached approximately 100-150 mm3. The test article was administered to the mice orally once a day from the day of grouping, total 28 days (QD×28 Days). Body weight change of animals was monitored regularly as an indicator of drug safety. Tumor volumes were measured twice weekly in two dimensions using a caliper, and the volume was expressed in mm3 using the formula “V=(LλW^2)/2”, where V is the tumor volume, L is the tumor length (the longest tumor dimension) and W is the tumor width (the longest tumor dimension perpendicular to L). Therapeutic efficacy was evaluated by tumor growth inhibition TGI (%)·TGI (%)=[1−(Ti−T0)/(Vi−V0)]×100; Ti is the average tumor volume of a treatment group on a given day, TO is the average tumor volume of the treatment group on day 0, Vi is the average tumor volume of the vehicle control group on the same day with Ti, and V0 is the average tumor volume of the vehicle group on day 0.

[4] = Body weight change in NCI-H226 xenograft model; format: in vivo, BALB/c nude mice; conditions: daily oral dosing, 28 days, mice bearing NCI-H226 tumor
Method: as §1

[5] = Pharmacokinetics in plasma following PO cassette dosing in mice; format: in vivo; conditions: mouse, Balb/C female mice, 5 mg/kg; for AUC: blood collection 30 min, 2 h, 4 h
Method: Adult Balb/C female mice (6-7 weeks, Vitalriver) were received to cassette dosing of the test compounds with 10-20% DMSO, 10% Solutol (Kolliphor HS 15, Beijing Fengli Jingqiu Pharmaceutical Co., Ltd.) and 80-70% H2O as excipients. The mice (n=3) were giving oral administration (intragastric administration) at a dose of 5 mg/kg. Time of blood collection: 30 min, 2 h, 4 h. About 0.1 mL of whole blood was collected from retro-orbital venous plexus, and placed into tubes that contained EDTA as an anticoagulant. The samples were centrifuged at 4° C. and 4000 rpm for 10 min. The plasma was transferred into centrifuge tubes, and stored at −20° C. before being analyzed. Concentrations of test compounds in the plasma samples were analyzed with liquid chromatography-tandem mass spectrometry (LC-MS/MS). Plasma concentration-time data of individual animals was analyzed using Microsoft Excel 2010. Non-compartmental model was introduced in concentration analysis. The pharmacokinetic parameters of the test compounds were calculated using WinNonlin (version 4.1; Pharsight) software.

SMILES: C=C(F)C(=O)N1CC(n2nc(-c3ccc(C(F)(F)F)cc3)c3ncn(C)c(=O)c32)C1 [Compound 80, 1-(1-(2-fluoroacryloyl)azetidin-3-yl)-6-methyl-3-(4-(trifluorometh-yl)phenyl)-1,6-dihydro-7H-pyrazolo[4,3-d]pyrimidin-7-one]
- EC50 [1]: 0.002 µM
- IC50 [2]: 0.00232 µM

SMILES: C=CC(=O)N1CCC(n2nc(-c3ccc(C(F)(F)F)cc3)c3ccccc32)C1 (stereo not drawn) [Compound 3, 1-(3-(3-(4-(trifluoromethyl)phenyl)-1H-indazol-1-yl)pyrrolidin-1-yl)prop-2-en-1-one]
- EC50 [1]: 0.0304 µM
- IC50 [2]: 0.0195 µM

SMILES: C=C(F)C(=O)N1CC(n2nc(-c3ccc(C(F)(F)F)cc3)c3cccnc32)C1 [Compound 5, 2-fluoro-1-(3-(3-(4-(trifluoromethyl)phenyl)-1H-pyrazolo[3,4-b]pyridin-1-yl)azetidin-1-yl)prop-2-en-1-one]
- EC50 [1]: 0.003 µM
- IC50 [2]: 0.00533 µM
- TGI (%) ([3]; 0.5 mg/kg): 40.3%
- TGI (%) ([3]; 2 mg/kg): 76.9%
- TGI (%) ([3]; 10 mg/kg): 101.3%
- TGI (%) ([3]; 50 mg/kg): 105.9%
- body weight loss [4]: no significant body weight loss

SMILES: C=C(F)C(=O)N1CC(n2nc(-c3ccc(C(F)(F)F)cc3)c3ncccc32)C1 [Compound 6, 2-fluoro-1-(3-(3-(4-(trifluoromethyl)phenyl)-1H-pyrazolo[4,3-b]pyridin-1-yl)azetidin-1-yl)prop-2-en-1-one]
- EC50 [1]: 0.002 µM
- IC50 [2]: 0.14 µM
- TGI (%) ([3]; 2 mg/kg): 77.1%
- TGI (%) ([3]; 10 mg/kg): 88.6%
- body weight loss [4]: no significant body weight loss

SMILES: C=C(F)C(=O)N1CC(n2nc(-c3ccc(C(F)(F)F)nc3)c3ncccc32)C1 [Compound 132, 2-fluoro-1-(3-(3-(6-(trifluoro-methyl)pyridin-3-yl)-1H-pyrazolo[4,3-b]pyridin-1-yl)-azetidin-1-yl)prop-2-en-1-one]
- EC50 [1]: 0.006 µM
- IC50 [2]: 0.0126 µM

SMILES: C=C(F)C(=O)N1CC(n2nc(-c3ccc(C(F)(F)F)nc3)c3cccnc32)C1 [Compound 124, 2-fluoro-1-(3-(3-(6-(trifluoro-methyl)pyridin-3-yl)-1H-pyrazolo[3,4-b]pyridin-1-yl)-azetidin-1-yl)prop-2-en-1-one]
- EC50 [1]: 0.014 µM
- IC50 [2]: 0.0207 µM
- Cmax [5]: 7190 ng/mL
- AUC [5]: 24300 ng·h/mL
- TGI (%) ([3]; 2 mg/kg): 67.3%
- body weight loss [4]: no significant body weight loss

SMILES: C=C(C)C(=O)N1CC(n2nc(-c3ccc(C(F)(F)F)cc3)c3cccnc32)C1 [Compound 73, 2-methyl-1-(3-(3-(4-(trifluoro-methyl)phenyl)-1H-pyrazolo[3,4-b]pyridin-1-yl)azetidin-1-yl)prop-2-en-1-one]
- EC50 [1]: 0.007 µM
- IC50 [2]: 0.115 µM
- Cmax [5]: 1190 ng/mL
- AUC [5]: 4070 ng·h/mL

SMILES: C=C(F)C(=O)N1CC(n2nc(-c3ccc(S(F)(F)(F)(F)F)cc3)c3cccnc32)C1 [Compound 173, 2-fluoro-1-(3-(3-(4-(pentafluoro-16-sulfanyl)phenyl)-1H-pyrazolo-[3,4-b]pyridin-1-yl)azetidin-1-yl)prop-2-en-1-one]
- EC50 [1]: 0.048 µM
- Cmax [5]: 1670 ng/mL
- AUC [5]: 5960 ng·h/mL

SMILES: C=CC(=O)N1CC(n2nc(-c3ccc(C(F)(F)F)cc3)c3cccnc32)C1 [Compound 30, 1-(3-(3-(4-(trifluoromethyl)phen-yl)-1H-pyrazolo[3,4-b]pyridin-1-yl)azetidin-1-yl)prop-2-en-1-one]
- EC50 [1]: 0.012 µM
- IC50 [2]: 0.0557 µM
